Series [1] has as its target ATP-dependent translocase ABCB1 (Homo sapiens, UniProt P08183). As to the kind of experiment: Inhibition of MDR1 (unknown origin) expressed in MDCK-MDR1 cells assessed as increase in Rh123 accumulation at 100 uM after 30 mins by spectrofluorometric analysis relative to control. As to conditions: mdck-mdr1, 0.5 h. The series is classed as cell-based.
The next series is filed under the species Homo sapiens. As to the kind of experiment: Inhibition of P-gp in human KBv200 cells assessed as potentiation of vincristine-induced cytotoxicity by measuring reduction in vincristine IC50 at 25 uM after 96 hrs by […] relative to vincristine alone. The series is classed as cell-based. For orientation: In western blotting, separated proteins are transferred to a membrane and probed.

Four molecules from ChEMBL document CHEMBL4261614, “Discovery of traditional Chinese medicine monomers and their synthetic intermediates, analogs or derivatives for battling P-gp-mediated multi-drug resistance” (Eur J Med Chem, 2018) can be followed below.

Sequence of ATP-dependent translocase ABCB1 (P08183 whole entry): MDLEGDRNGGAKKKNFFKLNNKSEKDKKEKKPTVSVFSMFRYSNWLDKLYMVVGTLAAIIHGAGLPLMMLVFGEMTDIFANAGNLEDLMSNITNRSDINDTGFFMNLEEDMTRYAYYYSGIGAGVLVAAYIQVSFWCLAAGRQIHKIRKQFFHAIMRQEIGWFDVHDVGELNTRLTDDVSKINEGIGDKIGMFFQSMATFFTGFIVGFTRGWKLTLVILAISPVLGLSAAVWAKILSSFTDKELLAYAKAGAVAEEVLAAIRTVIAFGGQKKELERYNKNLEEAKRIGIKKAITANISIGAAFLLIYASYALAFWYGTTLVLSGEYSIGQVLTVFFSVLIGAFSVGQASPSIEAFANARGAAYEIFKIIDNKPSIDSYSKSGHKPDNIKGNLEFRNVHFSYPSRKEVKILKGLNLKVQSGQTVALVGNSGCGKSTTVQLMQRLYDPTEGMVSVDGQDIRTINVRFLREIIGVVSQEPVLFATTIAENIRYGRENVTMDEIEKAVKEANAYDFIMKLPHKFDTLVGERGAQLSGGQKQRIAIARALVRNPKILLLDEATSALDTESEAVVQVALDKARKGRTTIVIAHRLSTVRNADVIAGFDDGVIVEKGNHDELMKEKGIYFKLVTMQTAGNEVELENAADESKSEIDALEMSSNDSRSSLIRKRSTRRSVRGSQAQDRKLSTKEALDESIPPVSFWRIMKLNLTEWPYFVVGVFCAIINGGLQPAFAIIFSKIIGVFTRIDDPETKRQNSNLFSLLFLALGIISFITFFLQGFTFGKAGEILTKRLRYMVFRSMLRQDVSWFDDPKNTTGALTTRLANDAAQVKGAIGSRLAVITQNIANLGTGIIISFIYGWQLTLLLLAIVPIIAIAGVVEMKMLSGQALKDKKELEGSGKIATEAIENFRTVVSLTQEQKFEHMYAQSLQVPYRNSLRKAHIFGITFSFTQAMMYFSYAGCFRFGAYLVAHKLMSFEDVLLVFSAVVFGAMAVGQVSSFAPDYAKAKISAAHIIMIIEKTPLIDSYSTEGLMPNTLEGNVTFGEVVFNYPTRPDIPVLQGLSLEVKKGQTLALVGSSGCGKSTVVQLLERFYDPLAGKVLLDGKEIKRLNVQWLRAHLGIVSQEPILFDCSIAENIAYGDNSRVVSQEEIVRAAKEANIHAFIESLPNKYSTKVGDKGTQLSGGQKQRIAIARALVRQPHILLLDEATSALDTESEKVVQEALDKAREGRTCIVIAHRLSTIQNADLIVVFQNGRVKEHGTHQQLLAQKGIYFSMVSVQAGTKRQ

`CC(C)C(=O)OC(C)(C)[C@@H]1Cc2c(ccc3ccc(=O)oc23)O1`: in series [1], the “fold change (FC)” value is recorded as 9.

On to `COc1cc2c(c(OC)c1OC)-c1c(cc(OC)c(OC)c1OC)C[C@H](C)[C@H](C)C2`, for which the Ratio IC50 in the series listed under Homo sapiens was 309. Same read-out and setting: the figure for `COc1cc2c(c(OC)c1OC)-c1c(cc(OC)c(OC)c1OC)C[C@](C)(O)[C@@H](C)C2` is 3.8.

With `COc1cc2c(c(OC)c1OC)-c1c(cc3c(c1OC)OCO3)CC(C)C(C)C2` (centres undefined), the Ratio IC50 in the series listed under Homo sapiens was 23.5.
